Reference: EP0816329A1, “Benzoic acid derivatives, process for their preparation and their use for the treatment of diseases” (HOECHST AKTIENGESELLSCHAFT, priority 1996, dated 1998)

Each compound was assayed on Glucose-6-Phosphatase-System (assay: Glucose-6-phosphatase enzyme test in liver microsomes (phosphate released from glucose-6-phosphate)). Conditions: Inhibitorkonzentration 100 µM; Glucose-6-Phosphat 1 mMol/l, 0,1 mg Mikrosomen-Fraktion, pH 7,0, 20 min, room temperature.
Format: biochemical, Wistar-Ratten
Description: Die Wirkung der erfindungsgemäßen Verbindungen auf das Glucose-6-Phosphatase-System wurde in einem Enzymtest in Lebermikrosomen untersucht.
Für die Präparation der die Glucose-6-Phosphatase enthaltenden Mikrosomen-Fraktion wurden frische Leber-Organe von männlichen Wistar-Ratten verwendet und wie in der Literatur beschrieben aufgearbeitet [Canfield, W. K. Und Arion, W.J., J. Biol. Chem. 263, 7458-7460, (1988)]. Diese Mikrosomen-Fraktion kann bei -70°C mindestens 2 Monate lang ohne signifikamten Aktivitätsverlust aufbewahrt werden.
Der Nachweis der Glucose-6-Phosphatase-Aktivität wurde wie in der Literatur angegeben (Arion, W. J. in Methods Enzymol. 174, Academic Press 1989, Seite 58 - 67) durch Bestimmung des aus Glucose-6-Phosphat freigesetzten Phosphats durchgeführt. 0,1 ml Testansatz enthielten Glucose-6-Phosphat (1mMol/l), die Testsubstanz, 0,1 mg Mikrosomen-Fraktion und 100 mMol/l HEPES-Puffer (4-(2-Hydroxyethyl)piperazin-1-ethansulfonsäure), pH 7,0. Die Reaktion wurde durch Zugabe des Enzyms gestartet. Nach Ablauf von 20 Minuten bei Raumtemperatur wurde die Reaktion durch Zugabe von 0,2 ml Phosphat-Reagens gestoppt. Die Probe wurde 30 Minuten lang bei 37 °C inkubiert, und die Absorbtion (A) der blauen Farbe anschließend bei 570 nm gemessen. Die inhibitorische Wirksamkeit der Testsubstanz ergab sich durch Vergleich mit einer Kontroll-Reaktion, die keine Testsubstanz enthielt nach der Formel Prozent Hemmung =(A(Kontrolle) - A(Testsubstanz))/(A(Kontrolle))x 100 [formula]
Die hemmende Wirkung der Testsubstanz (Verbindungen 1 - 43) wurde bei den in der nachfolgenden Tabelle 1 angegebenen Konzentrationen der Testsubstanz ermittelt.

| % Hemmung [%] | Structure (SMILES) |
| --- | --- |
| 64 | COc1ccc2cc(-c3ccc(NC(=O)CCC4CCCC4)cc3C(=O)O)ccc2c1 [Beispiel 9] |
| 50 | CC(C)(C)c1ccc(-c2ccc(NC(=O)COc3ccccc3)cc2C(=O)O)cc1 [Beispiel 16] |
| 62 | O=C(CCCc1ccc(Cl)cc1)Nc1ccc(-c2ccc(Cl)s2)c(C(=O)O)c1 [Beispiel 10] |
| 60 | COc1ccc2cc(-c3ccc(NC(=O)Cc4ccc(OC)c(OC)c4)cc3C(=O)O)ccc2c1 [Beispiel 2] |
| 57 | O=C(Nc1ccc(-c2ccco2)c(C(=O)O)c1)c1ccc2ccccc2c1 [Beispiel 14] |
| 53 | CC(C)(C)c1ccc(-c2ccc(NC(=O)C3CCCC3)cc2C(=O)O)cc1 [Beispiel 17] |
| 63 | COc1ccc(OC)c(CC(=O)Nc2ccc(-c3ccc4cc(OC)ccc4c3)c(C(=O)O)c2)c1 [Beispiel 7] |
| 57 | O=C(C=Cc1ccccc1)Nc1ccc(-c2ccc(Cl)s2)c(C(=O)O)c1 [Beispiel 11] |
| 93 | COc1ccc2cc(-c3ccc(NC(=O)c4cccs4)cc3C(=O)O)ccc2c1 [Beispiel 3] |
| 66 | O=C(Nc1ccc(CCCCCl)c(C(=O)O)c1)Nc1ccc(Cl)c(C(F)(F)F)c1 [Beispiel 4] |
| 53 | O=C(Nc1ccc(-c2cccs2)c(C(=O)O)c1)c1ccc2ccccc2c1 [Beispiel 13] |
| 77 | COc1ccc2cc(-c3ccc(NC(=O)c4cccc(F)c4)cc3C(=O)O)ccc2c1 [Beispiel 8] |
| 61 | COc1ccc2cc(-c3ccc(NC(=O)c4ccco4)cc3C(=O)O)ccc2c1 [Beispiel 6] |
| 71 | O=C(Nc1ccc(-c2ccc(Cl)s2)c(C(=O)O)c1)c1ccc2ccccc2c1 [Beispiel 12] |
| 53 | COc1ccc2cc(-c3ccc(NC(=O)C=Cc4ccccc4)cc3C(=O)O)ccc2c1 [Beispiel 1] |
| 51 | COc1ccc2cc(-c3ccc(NC(=O)C4CC4)cc3C(=O)O)ccc2c1 [Beispiel 5] |
| 63 | O=C(Nc1ccc(-c2ccco2)c(C(=O)O)c1)c1cnc2ccccc2n1 [Beispiel 15] |

Same assay, conditions: Inhibitorkonzentration 12,5 µM; Glucose-6-Phosphat 1 mMol/l, 0,1 mg Mikrosomen-Fraktion, pH 7,0, 20 min, room temperature; 12.5 µM

| Structure (SMILES) | % Hemmung [%] |
| --- | --- |
| N#Cc1cccc(C(=O)Nc2ccc(C#Cc3ccccc3)c(C(=O)O)c2)c1 [Beispiel 19] | 98 |
| O=C(Nc1ccc(C#Cc2ccccc2)c(C(=O)O)c1)c1ccccc1Cl [Beispiel 20] | 100 |
| Cc1ccc(C#Cc2ccc(NC(=O)C(F)(F)C(F)(F)C(F)(F)F)cc2C(=O)O)cc1 [Beispiel 41] | 71 |
| COc1cccc(C(=O)Nc2ccc(C#Cc3ccccc3)c(C(=O)O)c2)c1 [Beispiel 18] | 98 |

Now from value to compound:

| % Hemmung [%] | Structure (SMILES) |
| --- | --- |
| 64 | COc1cc(OC)cc(C(=O)Nc2ccc(C#Cc3ccc(C)cc3)c(C(=O)O)c2)c1 [Beispiel 31] |
| 52 | COc1ccc(C(=O)Nc2ccc(C#Cc3ccc(C)cc3)c(C(=O)O)c2)c(OC)c1 [Beispiel 30] |
| 63 | O=C(Nc1ccc(C#Cc2ccccc2)c(C(=O)O)c1)c1cccc(C(F)(F)F)c1 [Beispiel 23] |
| 51 | O=C(Nc1ccc(C#Cc2ccccc2)c(C(=O)O)c1)c1cccc([N+](=O)[O-])c1 [Beispiel 25] |
| 60 | Cc1ccc(C#Cc2ccc(NC(=O)c3cccc4ccccc34)cc2C(=O)O)cc1 [Beispiel 42] |
| 50 | Cc1ccc(C#Cc2ccc(NC(=O)c3cccc(C(F)(F)F)c3)cc2C(=O)O)cc1 [Beispiel 34] |
| 76 | Cc1ccc(C#Cc2ccc(NC(=O)CCC3CCCC3)cc2C(=O)O)cc1 [Beispiel 35] |
| 62 | Cc1ccc(C#Cc2ccc(NS(=O)(=O)c3ccc([N+](=O)[O-])cc3)cc2C(=O)O)cc1 [Beispiel 39] |
| 54 | O=C(O)c1cc(NC(=O)c2c(F)c(F)c(F)c(F)c2F)ccc1C#Cc1ccccc1 [Beispiel 26] |
| 94 | Cc1ccc(C#Cc2ccc(NC(=O)C(C)C)cc2C(=O)O)cc1 [Beispiel 40] |
| 78 | COc1cccc(C(=O)Nc2ccc(C#Cc3ccc(C)cc3)c(C(=O)O)c2)c1 [Beispiel 36] |
| 84 | O=C(Nc1ccc(C#Cc2ccccc2)c(C(=O)O)c1)c1ccc(Cl)cc1Cl [Beispiel 21] |
| 73 | Cc1ccc(C#Cc2ccc(NC(=O)c3cnc4ccccc4n3)cc2C(=O)O)cc1 [Beispiel 29] |
| 55 | Cc1ccc(C#Cc2ccc(NC(=O)c3ccccc3O)cc2C(=O)O)cc1 [Beispiel 43] |
| 77 | Cc1ccc(C#Cc2ccc(NC(=O)c3cc(C(F)(F)F)cc(C(F)(F)F)c3)cc2C(=O)O)cc1 [Beispiel 33] |
| 50 | Cc1ccc(C#Cc2ccc(NC(=O)c3cccc([N+](=O)[O-])c3)cc2C(=O)O)cc1 [Beispiel 38] |
| 55 | Cc1ccc(C#Cc2ccc(NC(=O)c3cccc(Cl)c3)cc2C(=O)O)cc1 [Beispiel 37] |
| 60 | CC(C)(O)C(=O)Nc1ccc(C#Cc2ccccc2)c(C(=O)O)c1 [Beispiel 28] |
| 61 | COc1ccc(C(=O)Nc2ccc(C#Cc3ccc(C)cc3)c(C(=O)O)c2)cc1OC [Beispiel 32] |
| 58 | O=C(O)c1cc(NC(=O)C2CCCCC2)ccc1C#Cc1ccccc1 [Beispiel 24] |
| 100 | O=C(Nc1ccc(C#Cc2ccccc2)c(C(=O)O)c1)c1cccc(F)c1 [Beispiel 22] |
| 58 | CC(C)(C)CC(=O)Nc1ccc(C#Cc2ccccc2)c(C(=O)O)c1 [Beispiel 27] |
